Test results taken from patent US20050170966A1, “Surfactants and surfactant compositions” (priority 2002, published 2005).

How the values were obtained:
Assay type in all cases: in vivo
[1] = system: Bindweed (Convolvulus arvensis); test: Greenhouse trial of adjuvant with glyphosate; conditions: for % kill: 7 DAT; for % fresh wt 33 days (foliage): 33 DAT
Description: (§1) This Example goves the results of greenhouse trials to investigate the adjuvant properties of compound SE2, with a fatty amine ethoxylate (FAE1) for comparitison, used in combination with glyphosate (isopropylamine salt?) as a herbicide against Couchgrass (Agropyron repens) and Bindweed (Convolvulus arvensis). Glyphosate doses of 180, 360 and 540 g(a.e.).ha^−1 were used against A. repens and 540, 810 and 1080 g(a.e.).ha^−1 against C. arvensis. The spray volume was 200 l.ha^−1 and ratios of glyphosate (active ingredient) to adjuvant of 2:0.75 (37.5%); 2:0.5 (25%); 2:0.25 (12.5%) and 2:0.1 (5%) (percentage figres in brackets are by weight adjuvant based on glyphosate a.e.) were tested. Weed kill was visually assessed 7, 14 and 21 days after treatment (DAT) and the % fresh weight of foliage was determined 22 and 33 DAT for A. repens and C. arvensis respectively. The % kill results at 7 DAT are set out in Table 3a and the % fresh weight of foliage determined 22 and 33 DAT is reported in Table 3b below. The % fresh weight of foliage is determined 22 and 33 DAT for A. repens and C. arvensis respectively and the results are included in Table 3b below: […]

[2] = system: Couchgrass (Agropyron repens); test: Greenhouse trial of adjuvant with glyphosate; conditions: for % kill: 7 DAT; for % fresh wt 22 days (foliage): 22 DAT
Description: as §1

pea = test: Field trial, lower glyphosate rate, varying adjuvant rate; conditions: 14 DAT
Procedure: (§2) In this Example, adjuvants of the invention (SE2), plus TAE1 as control, were tested in field trials in formulations including glyphosate (isopropylamine salt) as a herbicide on flax, pea, Savoy cabbage (Sav C) and Italian ryegrass (It R) as target crops. The application rate was 1080 g(a.e).ha^−1, with adjuvant at an application rate of 405 g.ha^−1 (75% of the normal application rate for adjuvants in such formulations of 540 g.ha^−1). The effectiveness of the formulations was by visual assessment of Growth Reduction (Gr Red) and Chlorosis/Necrosis (Chlor) 6 DAT with the values being reported in % (related to an untreated control=0% effect). Further field trial runs were carried out similar to Example AE4 on pea and Savoy cabbage as target crops at a lower application rate of glyphosate (570 g(a.e.).ha^−1) and using varying application rates for the adjuvant (135, 270 and 405 g.ha^−1) with the formulation components being mixed in the spray tank.

Savoy cabbage = test: as above; conditions: Sav C, 14 DAT
Procedure: as §2

[3] = system: Agropyron repens (couch grass); test: Adjuvants for Glyphosate, test plots, visual score
Procedure: (§3) In this Example the effect of compounds of the invention as adjuvants for Glyphosate as a herbicide against the species Agropyron repens (couch grass) and Abutilon theophrasti (velvetleaf) using FAE1 as a control adjuvant was tested. Test plots were treated by spraying (spray volume 200 l.ha^−1) at varying doses of glyphosate; 180 and 360 g(a.e.).ha^−1 for A. repens and 250 and 500 g(active).ha^−1 for A. theophrasti and ratios of glyphosate to adjuvant (8:1,4:1 and 2:1 by weight). The effect of the herbicide formulations was assessed by visual comparison with untreated control blocks 6, 13 and 19 days after treatment (DAT), scoring as percentages with 0=no effect and 100=complete kill. The results are set out in Table 2 below

[4] = system: Abutilon theophrasti (velvetleaf); test: Adjuvants for Glyphosate, test plots, visual score
Procedure: as §3

[5] = glyphosate 570 g(a.e.).ha^-1, adjuvant 135 g/ha
[6] = glyphosate 570 g(a.e.).ha^-1, adjuvant 270 g/ha
[7] = glyphosate 570 g(a.e.).ha^-1, adjuvant 405 g/ha

1-[Bis-(2-hydroxyethyl)-amino]-2-hydroxypropane-3-(Alc1 15-ethoxylate) [SE2]
% kill ([1]; Gly 540, Adj 5% Gly): 14.29% | % kill ([1]; Gly 540, Adj 12.5% Gly): 14.29% | % kill ([1]; Gly 540, Adj 25% Gly): 14.29% | % kill ([1]; Gly 540, Adj 37.5% Gly): 14.29% | % kill ([1]; Gly 810, Adj 5% Gly): 14.29% | % kill ([1]; Gly 810, Adj 12.5% Gly): 17.86% | % kill ([1]; Gly 810, Adj 25% Gly): 14.29% | % kill ([1]; Gly 810, Adj 37.5% Gly): 14.29% | % kill ([1]; Gly 1080, Adj 5% Gly): 14.29% | % kill ([1]; Gly 1080, Adj 12.5% Gly): 14.29% | % kill ([1]; Gly 1080, Adj 25% Gly): 14.29% | % kill ([1]; Gly 1080, Adj 37.5% Gly): 14.29% | % fresh wt 33 days (foliage) ([1]; Gly 540, 5 wt % adjuvant): 54.61% | % fresh wt 33 days (foliage) ([1]; Gly 540, 12.5 wt % adjuvant): 54.21% | % fresh wt 33 days (foliage) ([1]; Gly 540, 25 wt % adjuvant): 54.97% | % fresh wt 33 days (foliage) ([1]; Gly 540, 37.5 wt % adjuvant): 53.73% | % fresh wt 33 days (foliage) ([1]; Gly 810, 5 wt % adjuvant): 53.91% | % fresh wt 33 days (foliage) ([1]; Gly 810, 12.5 wt % adjuvant): 62.03% | % fresh wt 33 days (foliage) ([1]; Gly 810, 25 wt % adjuvant): 52.01% | % fresh wt 33 days (foliage) ([1]; Gly 810, 37.5 wt % adjuvant): 55.38% | % fresh wt 33 days (foliage) ([1]; Gly 1080, 5 wt % adjuvant): 50.55% | % fresh wt 33 days (foliage) ([1]; Gly 1080, 12.5 wt % adjuvant): 53.29% | % fresh wt 33 days (foliage) ([1]; Gly 1080, 25 wt % adjuvant): 46.2% | % fresh wt 33 days (foliage) ([1]; Gly 1080, 37.5 wt % adjuvant): 43.89% | % kill ([2]; Gly 180, Adj 5% Gly): 17.86% | % kill ([2]; Gly 180, Adj 12.5% Gly): 17.86% | % kill ([2]; Gly 180, Adj 25% Gly): 21.43% | % kill ([2]; Gly 180, Adj 37.5% Gly): 21.43% | % kill ([2]; Gly 360, Adj 5% Gly): 14.29% | % kill ([2]; Gly 360, Adj 12.5% Gly): 28.57% | % kill ([2]; Gly 360, Adj 25% Gly): 32.14% | % kill ([2]; Gly 360, Adj 37.5% Gly): 25% | % kill ([2]; Gly 540, Adj 5% Gly): 28.57% | % kill ([2]; Gly 540, Adj 12.5% Gly): 25% | % kill ([2]; Gly 540, Adj 25% Gly): 35.71% | % kill ([2]; Gly 540, Adj 37.5% Gly): 39.29% | % fresh wt 22 days (foliage) ([2]; Gly 180, 5 wt % adjuvant): 95.49% | % fresh wt 22 days (foliage) ([2]; Gly 180, 12.5 wt % adjuvant): 59.81% | % fresh wt 22 days (foliage) ([2]; Gly 180, 25 wt % adjuvant): 48.07% | % fresh wt 22 days (foliage) ([2]; Gly 180, 37.5 wt % adjuvant): 53.01% | % fresh wt 22 days (foliage) ([2]; Gly 360, 5 wt % adjuvant): 63.31% | % fresh wt 22 days (foliage) ([2]; Gly 360, 12.5 wt % adjuvant): 35.66% | % fresh wt 22 days (foliage) ([2]; Gly 360, 25 wt % adjuvant): 29.69% | % fresh wt 22 days (foliage) ([2]; Gly 360, 37.5 wt % adjuvant): 40.02% | % fresh wt 22 days (foliage) ([2]; Gly 540, 5 wt % adjuvant): 23.83% | % fresh wt 22 days (foliage) ([2]; Gly 540, 12.5 wt % adjuvant): 19.63% | % fresh wt 22 days (foliage) ([2]; Gly 540, 25 wt % adjuvant): 19.6% | % fresh wt 22 days (foliage) ([2]; Gly 540, 37.5 wt % adjuvant): 18.36% | % necrosis (pea; [5]): 70% | % necrosis (pea; [6]): 90% | % necrosis (pea; [7]): 95% | % necrosis (Savoy cabbage; [5]): 40% | % necrosis (Savoy cabbage; [6]): 40% | % necrosis (Savoy cabbage; [7]): 60% | visual herbicide effect score ([3]; glyphosate 180 g.ha^-1, ratio 2:1, 6 DAT): 17.9% | visual herbicide effect score ([3]; glyphosate 180 g.ha^-1, ratio 2:1, 13 DAT): 46.4% | visual herbicide effect score ([3]; glyphosate 180 g.ha^-1, ratio 2:1, 19 DAT): 82.1% | visual herbicide effect score ([3]; glyphosate 180 g.ha^-1, ratio 4:1, 6 DAT): 17.9% | visual herbicide effect score ([3]; glyphosate 180 g.ha^-1, ratio 4:1, 13 DAT): 39.3% | visual herbicide effect score ([3]; glyphosate 180 g.ha^-1, ratio 4:1, 19 DAT): 60% | visual herbicide effect score ([3]; glyphosate 180 g.ha^-1, ratio 8:1, 6 DAT): 25% | visual herbicide effect score ([3]; glyphosate 180 g.ha^-1, ratio 8:1, 13 DAT): 32.1% | visual herbicide effect score ([3]; glyphosate 180 g.ha^-1, ratio 8:1, 19 DAT): 50% | visual herbicide effect score ([3]; glyphosate 360 g.ha^-1, ratio 2:1, 6 DAT): 32.1% | visual herbicide effect score ([3]; glyphosate 360 g.ha^-1, ratio 2:1, 13 DAT): 60.7% | visual herbicide effect score ([3]; glyphosate 360 g.ha^-1, ratio 2:1, 19 DAT): 100% | visual herbicide effect score ([3]; glyphosate 360 g.ha^-1, ratio 4:1, 6 DAT): 25% | visual herbicide effect score ([3]; glyphosate 360 g.ha^-1, ratio 4:1, 13 DAT): 50% | visual herbicide effect score ([3]; glyphosate 360 g.ha^-1, ratio 4:1, 19 DAT): 92.9% | visual herbicide effect score ([3]; glyphosate 360 g.ha^-1, ratio 8:1, 6 DAT): 25% | visual herbicide effect score ([3]; glyphosate 360 g.ha^-1, ratio 8:1, 13 DAT): 46.4% | visual herbicide effect score ([3]; glyphosate 360 g.ha^-1, ratio 8:1, 19 DAT): 78.6% | visual herbicide effect score ([4]; glyphosate 250 g.ha^-1, ratio 2:1, 6 DAT): 25% | visual herbicide effect score ([4]; glyphosate 250 g.ha^-1, ratio 2:1, 13 DAT): 32.1% | visual herbicide effect score ([4]; glyphosate 250 g.ha^-1, ratio 2:1, 19 DAT): 42.9% | visual herbicide effect score ([4]; glyphosate 250 g.ha^-1, ratio 4:1, 6 DAT): 17.9% | visual herbicide effect score ([4]; glyphosate 250 g.ha^-1, ratio 4:1, 13 DAT): 28.6% | visual herbicide effect score ([4]; glyphosate 250 g.ha^-1, ratio 4:1, 19 DAT): 35.7% | visual herbicide effect score ([4]; glyphosate 250 g.ha^-1, ratio 8:1, 6 DAT): 21.4% | visual herbicide effect score ([4]; glyphosate 250 g.ha^-1, ratio 8:1, 13 DAT): 28.6% | visual herbicide effect score ([4]; glyphosate 250 g.ha^-1, ratio 8:1, 19 DAT): 42.9% | visual herbicide effect score ([4]; glyphosate 500 g.ha^-1, ratio 2:1, 6 DAT): 28.6% | visual herbicide effect score ([4]; glyphosate 500 g.ha^-1, ratio 4:1, 6 DAT): 28.6% | visual herbicide effect score ([4]; glyphosate 500 g.ha^-1, ratio 8:1, 6 DAT): 25% | visual herbicide effect score ([4]; glyphosate 500 g.ha^-1, ratio 8:1, 13 DAT): 50% | visual herbicide effect score ([4]; glyphosate 500 g.ha^-1, ratio 8:1, 19 DAT): 53.6%
